From the NIST ThermoML archive (doi:10.1016/j.fluid.2010.10.028)
± gives the expanded uncertainty stated by the source.

Assay: xn = mol fraction of the nth substance listed
Conditions: Liquid, Vibrating tube method

Work on `CC(C)=O` [acetone] + CCCCCCC yielded a mass density (407.24 K, 19810 kPa, x1 = 0.7024) of 645.07 ± 1.3 kg/m3, a mass density (407.24 K, 34830 kPa, x1 = 0.7024) of 668.11 ± 1.3 kg/m3 and a mass density (407.24 K, 39830 kPa, x1 = 0.7024) of 674.52 ± 1.4 kg/m3. For the same compound, the mass density (407.24 K, 44820 kPa, x1 = 0.7024) was 680.48 ± 1.4 kg/m3, the mass density (407.24 K, 49810 kPa, x1 = 0.7024) was 686.06 ± 1.4 kg/m3 and the mass density (407.24 K, 54890 kPa, x1 = 0.7024) was 691.39 ± 1.4 kg/m3. The mass density (407.24 K, 59890 kPa, x1 = 0.7024) was 696.35 ± 1.4 kg/m3, the mass density (407.24 K, 64860 kPa, x1 = 0.7024) was 701.02 ± 1.5 kg/m3 and the mass density (407.24 K, 69850 kPa, x1 = 0.7024) was 705.48 ± 1.5 kg/m3. The mass density (407.24 K, 74830 kPa, x1 = 0.7024) was 709.73 ± 1.5 kg/m3, the mass density (407.24 K, 79820 kPa, x1 = 0.7024) was 713.81 ± 1.5 kg/m3 and the mass density (407.24 K, 84800 kPa, x1 = 0.7024) was 717.74 ± 1.6 kg/m3. The mass density (407.24 K, 94760 kPa, x1 = 0.7024) was 725.11 ± 1.6 kg/m3, the mass density (407.24 K, 99830 kPa, x1 = 0.7024) was 728.64 ± 1.6 kg/m3 and the mass density (407.24 K, 119800 kPa, x1 = 0.7024) was 741.56 ± 1.7 kg/m3. It also gave a mass density (407.25 K, 89790 kPa, x1 = 0.7024) of 721.47 ± 1.6 kg/m3, a mass density (407.25 K, 104820 kPa, x1 = 0.7024) of 732.04 ± 1.6 kg/m3 and a mass density (407.25 K, 109820 kPa, x1 = 0.7024) of 735.31 ± 1.7 kg/m3. The mass density (407.25 K, 114820 kPa, x1 = 0.7024) was 738.47 ± 1.7 kg/m3, the mass density (407.25 K, 124810 kPa, x1 = 0.7024) was 744.56 ± 1.7 kg/m3 and the mass density (407.25 K, 129820 kPa, x1 = 0.7024) was 747.45 ± 1.8 kg/m3. It also gave a mass density (417.16 K, 1870 kPa, x1 = 0.611) of 581.34 ± 1.2 kg/m3, a mass density (417.16 K, 4870 kPa, x1 = 0.611) of 591.69 ± 1.2 kg/m3 and a mass density (417.16 K, 9860 kPa, x1 = 0.611) of 605.85 ± 1.2 kg/m3. It also gave a mass density (417.16 K, 14870 kPa, x1 = 0.611) of 617.52 ± 1.3 kg/m3, a mass density (417.16 K, 19870 kPa, x1 = 0.611) of 627.57 ± 1.3 kg/m3 and a mass density (417.16 K, 29860 kPa, x1 = 0.611) of 644.4 ± 1.3 kg/m3. For the same compound, the mass density (417.16 K, 34860 kPa, x1 = 0.611) was 651.63 ± 1.3 kg/m3, the mass density (417.16 K, 44870 kPa, x1 = 0.611) was 664.46 ± 1.4 kg/m3 and the mass density (417.16 K, 49860 kPa, x1 = 0.611) was 670.17 ± 1.4 kg/m3. The mass density (417.16 K, 54850 kPa, x1 = 0.611) was 675.54 ± 1.4 kg/m3, the mass density (417.16 K, 59830 kPa, x1 = 0.611) was 680.59 ± 1.5 kg/m3 and the mass density (417.16 K, 64940 kPa, x1 = 0.611) was 685.5 ± 1.5 kg/m3. The mass density (417.16 K, 69910 kPa, x1 = 0.611) was 690.02 ± 1.5 kg/m3, the mass density (417.16 K, 74900 kPa, x1 = 0.611) was 694.35 ± 1.5 kg/m3 and the mass density (417.16 K, 79880 kPa, x1 = 0.611) was 698.49 ± 1.6 kg/m3. For the same compound, the mass density (417.16 K, 84870 kPa, x1 = 0.611) was 702.46 ± 1.6 kg/m3, the mass density (417.16 K, 89850 kPa, x1 = 0.611) was 706.26 ± 1.6 kg/m3 and the mass density (417.16 K, 94840 kPa, x1 = 0.611) was 709.93 ± 1.6 kg/m3. For the same compound, the mass density (417.16 K, 99820 kPa, x1 = 0.611) was 713.43 ± 1.7 kg/m3, the mass density (417.16 K, 119850 kPa, x1 = 0.611) was 726.48 ± 1.8 kg/m3 and the mass density (417.17 K, 1870 kPa, x1 = 0.492) was 575.55 ± 1.2 kg/m3. For the same compound, the mass density (417.17 K, 4860 kPa, x1 = 0.492) was 585.56 ± 1.2 kg/m3, the mass density (417.17 K, 9850 kPa, x1 = 0.492) was 599.32 ± 1.2 kg/m3 and the mass density (417.17 K, 24840 kPa, x1 = 0.611) was 636.42 ± 1.3 kg/m3.
